Test results published in patent US7547687B2, “Therapeutic treatment methods” (priority 2002, dated 2009).

Columns and labels:
[1] = test system: lethally-irradiated female B6D2F1 mice; assay: Survival of lethally-irradiated mice (10 Gy total body irradiation); format: in vivo; conditions: groups of 12 animals
Method: Treatment of ionizing radiation exposure. The effect of selected F1Cs on survival of lethally-irradiated female B6D2F1 mice were compared to control animals treated with vehicle alone. The animals were exposed to 10 Gy of total body irradiation at 2.5 Gy/min using a ^137Cs source. […] For Group 4, test article was administered as a 50 μL volume, by intramuscular injection for three consecutive days. The formulation was a suspension containing 0.1% w/v carboxymethyl-cellulose, 0.9% w/v sodium chloride and 0.05% v/v phenol. The formulations were agitated to uniformly resuspend the F1C before syringing, and injected into animals within a few minutes of drawing into the syringe to prevent settling in the syringe.
The groups of animals were treated as follows.
The number of surviving animals is shown for day 6, 7, 12 and 21.

female BALB/cByJ mice = assay: Delayed type hypersensitivity (DTH) response to topical oxazolone challenge, differential ear thickness; format: in vivo; conditions: 24 hours after oxazolone challenge; vehicle alone 0.225 mm
Method: Modulation of delayed type hypersensitivity. The capacity of F1Cs to modulate delayed type hypersensitivity (DTH) is determined in mice. Groups of five female BALB/cByJ mice (20-25 grams) are anesthetized and 100 μL of a 3% solution of oxazolone is applied on day 0 to the shaved abdomen and dried. Seven days later, on day 7, the mice are challenged by applying 5 μL of oxazolone topically to each side of the right ear. The F1C (at about 20-100 mg/mL) in vehicle is administered by subcutaneous injection (2 mg/day) one time on day 6, 24 hours before the oxazolone challenge. The vehicle as a non-aqueous suspension of the F1C in, e.g., 2% benzyl alcohol w/v, 0.1% Brij 96 w/v and equal volumes of PEG 300 and propylene glycol.
Dexamethasone in saline (0.2 mg/mL) is administered daily for 9 days (day −1 to 7), first dose 24 hours before sensitization, last dose at challenge by subcutaneous injection (0.01 mg/dose, 50 μL/injection). On Day 8, 24 hours following the oxazolone challenge, both the right and left ear thicknesses are measured using a micrometer caliper and the differences are determined. The differential ear thickness is measured as an indicator of the DTH response to topical oxazolone challenge. The DTH response is expressed as the difference in the thickness (mm) between the right and the left ears for each animal.

[2] = test system: U937 human promonocytic leukemia cells; assay: Microarray analysis of transcript levels in PMA-treated U937 cells exposed to BrEA; format: cell-based; conditions: for Ratio of BrEA treated cells compared to control cells (transcript level): 10 μM BrEA, PMA-treated U937 cells
From the text: Modulation of transcription. The effect of 16α-bromoepiandrosterone (“BrEA”) on transcript levels in cells in vitro was studied using a microarray to allow simultaneous monitoring of the expression of many genes to allow detailed analysis of the molecular pathways involved in biological responses to the compound.
In general, microarray technology works by covalently linking short DNA sequences that are complementary to the transcripts of many different genes on a single slide or array chip. mRNAs from test and control samples are generated and labeled with one or more colored fluorescent dyes or probes. The probes are hybridized with the array, which is then scanned by laser. The color and intensity of the fluorescent signal at each spot denotes relative expression level of each gene. The capacity of other F1Cs described herein, e.g., a F1C in compound group 1, 2, 3, 4 or 5, to modulate gene expression is characterized in a similar manner.
The array used in the experiment described below, contained about 12,000 known genes. The experiment used U937 human promonocytic leukemia cells that differentiate to monocyte/macrophage cells in the presence of phorbol-12-myristate-13-acetate (“PMA”). The U937 cells were PMA treated and then exposed to BrEA for 1 hr, 2 hrs, or 4 hrs, followed by bacterial lipopolysaccharide (“LPS”) stimulation for 1 hr, 2 hrs or 4 hrs. The level of transcripts of the genes on the array was measured at the time points using RNA prepared from BrEA-treated and control (no BrEA) cells. U937 cells were plated at 1×10^5 cells/mL in the presence of 3 ng/mL PMA (Sigma, Catalog #P-8139) for 48 hrs. Cells were then treated with either 10 μM BrEA or DMSO (vehicle) for 1 hr, 2 hr, and 4 hrs. At each time point, cells were harvested and total RNA was extracted using Qiagen Rneasy kit according to manufacturer's specification. Total RNA samples were then analyzed by Mergen Ltd. (San Leandro, Calif. www.mergen.com) to perform microarray assay.
For the microarray assay, Dnase-treated total RNA (20 micrograms) was reverse-transcribed using an oligo[(dT)24 T7 promoter]65 primer (consisting of the nucleotide binding sequence for the T7 RNA polymerase followed by 24 thymidine nucleotides). This was followed by second strand synthesis. The reaction mixture was then treated with Rnase I to digest the remaining RNA. The double-stranded cDNA was phenol-chloroform extracted and used as template for in vitro transcription (T7 MEGAscript, Ambion, Inc.) to generate biotin-labeled cRNA probes. These probes were hybridized overnight at 30° C. with continuous agitation to Mergen's ExpressChip HO5 DNA Microarray System (catalog number HO5-001) containing 12,000 genes. The arrays were then washed, and hybridized probes were detected using Mergen's cyanine-3 fluorescent dye-conjugated protein. Chips were imaged using an Affymetrix 417-418 form Affymetrix/Genetic MicroSystems (www.affymetrix.com) and spot intensity was quantitated using ImaGenefrom BioDiscovery Inc. .______
The up-regulation of many of these genes most apparent at 4 hr after treatment, at which time roughly 700 genes were within the above criteria. Some examples are shown in the following list. The ratios given in the list are from BrEA treated cells compared to control cells not treated with BrEA.

[3] = 0.6 mg i.m. daily for 3 consecutive days after 10 Gy
[4] = 0.6 mg s.c. daily for 3 consecutive days, first dose 2 to 4 hours after 10 Gy
[5] = 3.0 mg s.c. daily for 3 consecutive days after 10 Gy

C[C@]12CC[C@H]3[C@@H](CC=C4C[C@@H](O)CC[C@@]43C)[C@@H]1CC[C@@H]2O [3β,17β-dihydroxyandrost-5-ene]
number of surviving animals, day 6 [1, 3]: 12 | number of surviving animals, day 7 [1, 3]: 12 | number of surviving animals, day 12 [1, 3]: 11 | number of surviving animals, day 21 [1, 3]: 9 | number of surviving animals, day 6 [1, 4]: 12 | number of surviving animals, day 7 [1, 4]: 11 | number of surviving animals, day 12 [1, 4]: 10 | number of surviving animals, day 21 [1, 4]: 7 | number of surviving animals, day 6 [1, 5]: 12 | number of surviving animals, day 7 [1, 5]: 12 | number of surviving animals, day 12 [1, 5]: 9 | number of surviving animals, day 21 [1, 5]: 7

O=P1(N(CCCl)CCCl)NCCCO1 (stereo not drawn) [cyclophosphamide]
DTH response (differential ear thickness, right minus left ear) (female BALB/cByJ mice): 0.092 mm

C[C@]12CC[C@H]3[C@@H](CC=C4C[C@@H](O)CC[C@@]43C)[C@@H]1CC[C@@H]2N [3β-hydroxy-17β-aminoandrost-5-ene]
number of surviving animals, day 6 [1, 4]: 12 | number of surviving animals, day 7 [1, 4]: 12 | number of surviving animals, day 12 [1, 4]: 12 | number of surviving animals, day 21 [1, 4]: 11

C[C@@H]1C[C@H]2[C@@H]3CCC4=CC(=O)C=C[C@]4(C)[C@@]3(F)[C@@H](O)C[C@]2(C)[C@@]1(O)C(=O)CO [dexamethasone]
DTH response (differential ear thickness, right minus left ear) (female BALB/cByJ mice): 0.144 mm

C[C@]12CC[C@H](O)C[C@@H]1CC[C@@H]1[C@@H]2CC[C@]2(C)C(=O)[C@H](Br)C[C@@H]12 [BrEA, 16α-bromoepiandrosterone]
number of genes up-regulated (at least two-fold higher than control and significantly higher than background) ([2]; 4 hr after treatment, array of about 12,000 genes): roughly 700 genes | transcripts of Cul1 ([2]; at 1 hr): increased | transcripts of EGR1 ([2]; at 1 hr): increased | transcripts of USF1 ([2]; at 1 hr): increased | transcripts of c-Fos ([2]; at 1 hr): increased | Jun B transcript ([2]; at 4 hrs): increased | Ratio of BrEA treated cells compared to control cells (transcript level) ([2]; gene ATF3 (Hs.460)): 5.3 | Ratio of BrEA treated cells compared to control cells (transcript level) ([2]; gene ATP2B1 (Hs.78546)): 5.4 | Ratio of BrEA treated cells compared to control cells (transcript level) ([2]; gene DUSP5 (Hs.2128)): 10.2 | Ratio of BrEA treated cells compared to control cells (transcript level) ([2]; gene EHD1 (Hs.155119)): 9.7 | Ratio of BrEA treated cells compared to control cells (transcript level) ([2]; gene GG2-1 (Hs.17839)): 10.3 | Ratio of BrEA treated cells compared to control cells (transcript level) ([2]; gene GRO2 (Hs.75765)): 9.6 | Ratio of BrEA treated cells compared to control cells (transcript level) ([2]; gene GRO3 (Hs.89690)): 124.7 | Ratio of BrEA treated cells compared to control cells (transcript level) ([2]; gene HIVEP2 (Hs.75063)): 6.6 | Ratio of BrEA treated cells compared to control cells (transcript level) ([2]; gene HSPA1B (Hs.274402)): 7.8 | Ratio of BrEA treated cells compared to control cells (transcript level) ([2]; gene IL1B (Hs.126256)): 27.5 | Ratio of BrEA treated cells compared to control cells (transcript level) ([2]; gene IL1RN (Hs.81134)): 53.0 | Ratio of BrEA treated cells compared to control cells (transcript level) ([2]; gene IL15RA (Hs.12503)): 7.6 | Ratio of BrEA treated cells compared to control cells (transcript level) ([2]; gene IL23A (Hs.98309)): 131.8 | Ratio of BrEA treated cells compared to control cells (transcript level) ([2]; gene INHBA (Hs.727)): 21.5 | Ratio of BrEA treated cells compared to control cells (transcript level) ([2]; gene KIAA1376 (Hs.24684)): 7.7 | Ratio of BrEA treated cells compared to control cells (transcript level) ([2]; gene KIAA1726 (Hs.164719)): 6.9 | Ratio of BrEA treated cells compared to control cells (transcript level) ([2]; gene LOC51285 (Hs.27018)): 5.9 | Ratio of BrEA treated cells compared to control cells (transcript level) ([2]; gene MACS (Hs.75607)): 30.0 | Ratio of BrEA treated cells compared to control cells (transcript level) ([2]; gene MAIL (Hs.301183)): 25.5 | Ratio of BrEA treated cells compared to control cells (transcript level) ([2]; gene MAP3K5 (Hs.151988)): 7.1 | Ratio of BrEA treated cells compared to control cells (transcript level) ([2]; gene MGC5618 (Hs.177781)): 32.0 | Ratio of BrEA treated cells compared to control cells (transcript level) ([2]; gene NAF1 (Hs.109281)): 6.4 | Ratio of BrEA treated cells compared to control cells (transcript level) ([2]; gene NFKBIA (Hs.81328)): 11.3 | Ratio of BrEA treated cells compared to control cells (transcript level) ([2]; gene OLR1 (Hs.77729)): 26.1 | Ratio of BrEA treated cells compared to control cells (transcript level) ([2]; gene PBEF (Hs.239138)): 9.2 | Ratio of BrEA treated cells compared to control cells (transcript level) ([2]; gene PIM2 (Hs.80205)): 14.5 | Ratio of BrEA treated cells compared to control cells (transcript level) ([2]; gene PKIG (Hs.3407)): 5.4 | Ratio of BrEA treated cells compared to control cells (transcript level) ([2]; gene PTX3 (Hs.2050)): 1348.4 | Ratio of BrEA treated cells compared to control cells (transcript level) ([2]; gene REV3L (Hs.115521)): 5.3 | Ratio of BrEA treated cells compared to control cells (transcript level) ([2]; gene RGS16 (Hs.183601)): 29.2 | Ratio of BrEA treated cells compared to control cells (transcript level) ([2]; gene RIPK2 (Hs.103755)): 6.6 | Ratio of BrEA treated cells compared to control cells (transcript level) ([2]; gene SCYA1 (Hs.72918)): 40.4 | Ratio of BrEA treated cells compared to control cells (transcript level) ([2]; gene SCYA4 (Hs.75703)): 67.3 | Ratio of BrEA treated cells compared to control cells (transcript level) ([2]; gene SCYA8 (Hs.271387)): 7.0 | Ratio of BrEA treated cells compared to control cells (transcript level) ([2]; gene SCYA20 (Hs.75498)): 174.0 | Ratio of BrEA treated cells compared to control cells (transcript level) ([2]; gene SERPINE1 (Hs.82085)): 8.4 | Ratio of BrEA treated cells compared to control cells (transcript level) ([2]; gene SOD2 (Hs.318885)): 39.7 | Ratio of BrEA treated cells compared to control cells (transcript level) ([2]; gene SSI-1 (Hs.50640)): 16.9 | Ratio of BrEA treated cells compared to control cells (transcript level) ([2]; gene STAT5A (Hs.167503)): 5.9 | Ratio of BrEA treated cells compared to control cells (transcript level) ([2]; gene STK2 (Hs.1087)): 9.0 | Ratio of BrEA treated cells compared to control cells (transcript level) ([2]; gene TNFAIP2 (Hs.101382)): 17.4 | Ratio of BrEA treated cells compared to control cells (transcript level) ([2]; gene TNFAIP3 (Hs.211600)): 5.1 | Ratio of BrEA treated cells compared to control cells (transcript level) ([2]; gene TNFAIP6 (Hs.29352)): 1733.0 | Ratio of BrEA treated cells compared to control cells (transcript level) ([2]; gene TRAF1 (Hs.2134)): 15.0 | Ratio of BrEA treated cells compared to control cells (transcript level) ([2]; gene TRG@ (Hs.112259)): 17.4
